Assay results taken from ChEMBL document CHEMBL1150850, “Cytotoxic principles from Ventilago leiocarpa” (J Nat Prod, 2001).
Values belong to the molecule of their own block, whether it stands above or below them.

Experiments:
[1] = system: Calu-1; test: Inhibition of human Calu1 cell proliferation assessed as [3H]thymidine incorporation after 3 days by scintillation counting; type: functional, cell-based
[2] = system: HeLa; test: Inhibition of human HeLa cell proliferation assessed as [3H]thymidine incorporation after 3 days by scintillation counting; type: functional, cell-based
[3] = system: Raji; test: Inhibition of human Raji cell proliferation assessed as [3H]thymidine incorporation after 3 days by scintillation counting; type: functional, cell-based
[4] = system: Vero; test: Inhibition of african green monkey Vero cell proliferation assessed as [3H]thymidine incorporation after 3 days by scintillation counting; type: cell-based; details: Chlorocebus sabaeus
[5] = system: WISH; test: Inhibition of human WISH cell proliferation assessed as [3H]thymidine incorporation after 3 days by scintillation counting; type: functional, cell-based
[6] = system: K562; test: Inhibition of human K562 cell proliferation assessed as [3H]thymidine incorporation after 3 days by scintillation counting; type: functional, cell-based
[7] = system: HeLa; test: Growth inhibition of human HeLa cells assessed as [3H]thymidine incorporation at 6.25 uM after 3 days by scintillation counting; type: functional; details: read-out: GI
[8] = system: WISH; test: Growth inhibition of human WISH cells assessed as [3H]thymidine incorporation at 100 uM after 3 days by scintillation counting; type: functional; details: read-out: GI
[9] = system: WISH; test: Growth inhibition of human WISH cells assessed as [3H]thymidine incorporation at 12.5 uM after 3 days by scintillation counting; type: functional; details: read-out: GI
[10] = system: Calu-1; test: Growth inhibition of human Calu1 cells assessed as [3H]thymidine incorporation at 6.25 uM after 3 days by scintillation counting; type: functional; details: read-out: GI
[11] = system: WISH; test: Growth inhibition of human WISH cells assessed as [3H]thymidine incorporation at 6.25 uM after 3 days by scintillation counting; type: functional; details: read-out: GI
[12] = Growth inhibition of african green monkey Vero cells assessed as [3H]thymidine incorporation at 100 uM after 3 days by scintillation counting; type: cell-based; details: chlorocebus sabaeus, read-out: GI
[13] = system: Raji; test: Growth inhibition of human Raji cells assessed as [3H]thymidine incorporation at 6.25 uM after 3 days by scintillation counting; type: functional; details: read-out: GI
[14] = Growth inhibition of african green monkey Vero cells assessed as [3H]thymidine incorporation at 50 uM after 3 days by scintillation counting; type: cell-based; details: chlorocebus sabaeus, read-out: GI
[15] = system: Raji; test: Growth inhibition of human Raji cells assessed as [3H]thymidine incorporation at 100 uM after 3 days by scintillation counting; type: functional; details: read-out: GI
[16] = system: WISH; test: Growth inhibition of human WISH cells assessed as [3H]thymidine incorporation at 50 uM after 3 days by scintillation counting; type: functional; details: read-out: GI
[17] = Growth inhibition of african green monkey Vero cells assessed as [3H]thymidine incorporation at 25 uM after 3 days by scintillation counting; type: cell-based; details: chlorocebus sabaeus, read-out: GI
[18] = system: Raji; test: Growth inhibition of human Raji cells assessed as [3H]thymidine incorporation at 25 uM after 3 days by scintillation counting; type: functional; details: read-out: GI
[19] = system: Raji; test: Growth inhibition of human Raji cells assessed as [3H]thymidine incorporation at 12.5 uM after 3 days by scintillation counting; type: functional; details: read-out: GI
[20] = system: HeLa; test: Growth inhibition of human HeLa cells assessed as [3H]thymidine incorporation at 12.5 uM after 3 days by scintillation counting; type: functional; details: read-out: GI
[21] = system: HeLa; test: Growth inhibition of human HeLa cells assessed as [3H]thymidine incorporation at 50 uM after 3 days by scintillation counting; type: functional; details: read-out: GI
[22] = system: Vero; test: Growth inhibition of african green monkey Vero cells assessed as [3H]thymidine incorporation at 12.5 uM after 3 days by scintillation counting; type: cell-based; details: chlorocebus sabaeus, 72 h
[23] = system: Calu-1; test: Growth inhibition of human Calu1 cells assessed as [3H]thymidine incorporation at 50 uM after 3 days by scintillation counting; type: functional; details: read-out: GI
[24] = system: HeLa; test: Growth inhibition of human HeLa cells assessed as [3H]thymidine incorporation at 25 uM after 3 days by scintillation counting; type: functional; details: read-out: GI
[25] = system: HeLa; test: Growth inhibition of human HeLa cells assessed as [3H]thymidine incorporation at 100 uM after 3 days by scintillation counting; type: functional; details: read-out: GI
[26] = system: Calu-1; test: Growth inhibition of human Calu1 cells assessed as [3H]thymidine incorporation at 100 uM after 3 days by scintillation counting; type: functional; details: read-out: GI
[27] = system: Calu-1; test: Growth inhibition of human Calu1 cells assessed as [3H]thymidine incorporation at 25 uM after 3 days by scintillation counting; type: functional; details: read-out: GI
[28] = system: Calu-1; test: Growth inhibition of human Calu1 cells assessed as [3H]thymidine incorporation at 12.5 uM after 3 days by scintillation counting; type: functional; details: read-out: GI
[29] = system: K562; test: Growth inhibition of human K562 cells assessed as [3H]thymidine incorporation at 100 uM after 3 days by scintillation counting; type: functional; details: read-out: GI
[30] = system: WISH; test: Growth inhibition of human WISH cells assessed as [3H]thymidine incorporation at 25 uM after 3 days by scintillation counting; type: functional; details: read-out: GI
[31] = Growth inhibition of african green monkey Vero cells assessed as [3H]thymidine incorporation at 6.25 uM after 3 days by scintillation counting; type: cell-based; details: chlorocebus sabaeus, read-out: GI
[32] = system: Raji; test: Growth inhibition of human Raji cells assessed as [3H]thymidine incorporation at 50 uM after 3 days by scintillation counting; type: functional; details: read-out: GI
[33] = system: K562; test: Growth inhibition of human K562 cells assessed as [3H]thymidine incorporation at 12.5 uM after 3 days by scintillation counting; type: functional; details: read-out: GI
[34] = system: Calu-1; test: Growth inhibition of human Calu1 cells assessed as [3H]thymidine incorporation at 3.125 uM after 3 days by scintillation counting; type: functional; details: read-out: GI
[35] = Growth inhibition of african green monkey Vero cells assessed as [3H]thymidine incorporation at 3.125 uM after 3 days by scintillation counting; type: cell-based; details: chlorocebus sabaeus, read-out: GI
[36] = system: K562; test: Growth inhibition of human K562 cells assessed as [3H]thymidine incorporation at 6.25 uM after 3 days by scintillation counting; type: functional; details: read-out: GI
[37] = system: WISH; test: Growth inhibition of human WISH cells assessed as [3H]thymidine incorporation at 3.125 uM after 3 days by scintillation counting; type: functional; details: read-out: GI
[38] = system: HeLa; test: Growth inhibition of human HeLa cells assessed as [3H]thymidine incorporation at 3.125 uM after 3 days by scintillation counting; type: functional; details: read-out: GI
[39] = system: Raji; test: Growth inhibition of human Raji cells assessed as [3H]thymidine incorporation at 3.125 uM after 3 days by scintillation counting; type: functional; details: read-out: GI
[40] = system: K562; test: Growth inhibition of human K562 cells assessed as [3H]thymidine incorporation at 25 uM after 3 days by scintillation counting; type: functional; details: read-out: GI
[41] = system: K562; test: Growth inhibition of human K562 cells assessed as [3H]thymidine incorporation at 3.125 uM after 3 days by scintillation counting; type: functional; details: read-out: GI
[42] = system: K562; test: Growth inhibition of human K562 cells assessed as [3H]thymidine incorporation at 50 uM after 3 days by scintillation counting; type: functional; details: read-out: GI

Compound: CC[C@H](/C=C/[C@@H](C)[C@H]1CC[C@H]2[C@@H]3CC=C4C[C@@H](O)CC[C@]4(C)[C@H]3CC[C@]12C)C(C)C [STIGMASTEROL]
IC50 [1]: > 100 µM
IC50 [2]: > 100 µM
IC50 [3]: > 100 µM
IC50 [4]: > 100 µM
IC50 [5]: > 100 µM
IC50 [6]: > 100 µM

Compound: Cc1cc(O)c2c(c1)C(=O)c1cc(O)cc(O)c1C2=O [EMODIN]
inhibition of growth at 6.25 µM [7]: 24.7%
inhibition of growth at 100 µM [8]: 80.7%
inhibition of growth at 12.5 µM [9]: 22%
inhibition of growth at 6.25 µM [10]: 49.4%
inhibition of growth at 6.25 µM [11]: 8.7%
inhibition at 72 h, 100 µM [12]: 69.1%
inhibition of growth at 6.25 µM [13]: 0.3%
IC50 [1]: 6.25 µM
inhibition at 72 h, 50 µM [14]: 64.4%
IC50 [2]: 15.6 µM
inhibition of growth at 100 µM [15]: 100%
inhibition of growth at 50 µM [16]: 63.3%
inhibition at 72 h, 25 µM [17]: 26.7%
inhibition of growth at 25 µM [18]: 45.8%
inhibition of growth at 12.5 µM [19]: 41.2%
IC50 [3]: 43.8 µM
inhibition of growth at 12.5 µM [20]: 41.9%
inhibition of growth at 50 µM [21]: 100%
growth inhibition (GI) [22]: 13.7%
inhibition of growth at 50 µM [23]: 100%
inhibition of growth at 25 µM [24]: 78.3%
IC50 [4]: 40 µM
inhibition of growth at 100 µM [25]: 100%
IC50 [5]: 28.8 µM
inhibition of growth at 100 µM [26]: 100%
inhibition of growth at 25 µM [27]: 100%
inhibition of growth at 12.5 µM [28]: 60.6%
inhibition of growth at 100 µM [29]: 29.5%
inhibition of growth at 25 µM [30]: 61.9%
IC50 [6]: > 100 µM
inhibition at 72 h, 6.25 µM [31]: 3.3%
inhibition of growth at 50 µM [32]: 47.2%

Compound: Cc1cc(O)c2c(c1)C(=O)c1c(c(O)cc(O)c1-c1c(O)cc(O)c3c1C(=O)c1cc(C)cc(O)c1C3=O)C2=O [SKYRIN]
inhibition of growth at 12.5 µM [33]: 33.5%
inhibition of growth at 6.25 µM [7]: 27%
inhibition of growth at 12.5 µM [9]: 37.8%
inhibition of growth at 3.125 µM [34]: 14.3%
inhibition of growth at 6.25 µM [10]: 20.6%
inhibition of growth at 6.25 µM [11]: 23.4%
inhibition at 72 h, 3.125 µM [35]: 19.9%
inhibition of growth at 6.25 µM [13]: 36.8%
IC50 [1]: 15.5 µM
inhibition of growth at 6.25 µM [36]: 22.2%
inhibition at 72 h, 50 µM [14]: 100%
IC50 [2]: 11.3 µM
inhibition of growth at 3.125 µM [37]: 24.7%
inhibition of growth at 50 µM [16]: 100%
inhibition at 72 h, 25 µM [17]: 70.5%
inhibition of growth at 25 µM [18]: 82.1%
inhibition of growth at 12.5 µM [19]: 48.1%
IC50 [3]: 12.3 µM
inhibition of growth at 12.5 µM [20]: 55%
inhibition of growth at 50 µM [21]: 100%
inhibition of growth at 3.125 µM [38]: 5.8%
growth inhibition (GI) [22]: 34.8%
inhibition of growth at 3.125 µM [39]: 33.8%
inhibition of growth at 50 µM [23]: 100%
inhibition of growth at 25 µM [24]: 100%
IC50 [4]: 18.3 µM
IC50 [5]: 21.3 µM
inhibition of growth at 25 µM [27]: 100%
inhibition of growth at 25 µM [40]: 50.6%
inhibition of growth at 12.5 µM [28]: 24.9%
inhibition of growth at 3.125 µM [41]: 29.7%
inhibition of growth at 25 µM [30]: 60%
IC50 [6]: 27.3 µM
inhibition of growth at 50 µM [42]: 100%
inhibition at 72 h, 6.25 µM [31]: 23.1%
inhibition of growth at 50 µM [32]: 100%

Compound: Cc1cc(O)c2c(c1O)C(=O)c1cc(O)cc(O)c1C2=O [CATENARIN]
IC50 [1]: > 100 µM
IC50 [2]: > 100 µM
IC50 [3]: > 100 µM
IC50 [4]: > 100 µM
IC50 [5]: > 100 µM
IC50 [6]: > 100 µM

Further lines, with some results ahead:

IC50 [1]: > 100 µM
IC50 [2]: > 100 µM
IC50 [3]: > 100 µM
IC50 [6]: > 100 µM
Compound: COc1cc(C)c(O)c2c1C(=O)c1c(O)cccc1C2=O
IC50 [4]: > 100 µM
IC50 [5]: > 100 µM

IC50 [1]: > 100 µM
IC50 [2]: > 100 µM
IC50 [3]: > 100 µM
IC50 [6]: > 100 µM
Compound: COC1=C(O)C(=O)c2c(cc3c(c2O)C(C)OC(C)C3)C1=O (stereo not drawn) [VENTILOQUINONE I]
IC50 [4]: > 100 µM
IC50 [5]: > 100 µM

IC50 [1]: > 100 µM
IC50 [2]: > 100 µM
IC50 [3]: > 100 µM
IC50 [6]: > 100 µM
Compound: C=C(C)[C@@H]1CC[C@]2(C)CC[C@]3(C)[C@H](CC[C@@H]4[C@@]5(C)CC[C@H](O)C(C)(C)[C@@H]5CC[C@]43C)[C@@H]12 [LUPEOL]
IC50 [4]: > 100 µM
IC50 [5]: > 100 µM
